Active and inactive are the calls of the source.

The values below come from ChEMBL document CHEMBL1143695, “Synthesis and biological studies of novel 2-aminoalkylethers as potential antiarrhythmic agents for the conversion of atrial fibrillation” (J Med Chem, 2007).

For data set [1], the system named is Rattus norvegicus. The experiment in a line: CNS toxicity in iv dosed Sprague-Dawley rat assessed as cumulative convulsion dose. Type of data set: organism-based. The settings on record: in vivo.
The test system of data set [2] is Rattus norvegicus. The experiment in a line: Antiarrhythmic activity in intravenously dosed Sprague-Dawley rat with ischemia-induced arrhythmia. It counts as functional, Heart.
Data set [3] addresses Potassium voltage-gated channel subfamily A member 5 (Homo sapiens, UniProt P22460). The experiment in a line: Inhibition of human potassium channel Kv1.5 by patch-clamp method. Background: Patch clamp records ionic current or voltage across a cell membrane.
The target of data set [4] is T1, A-type voltage-gated potassium channel KCND2 (Rattus norvegicus, UniProt Q63881).
T1 sequence (Q63881 whole entry): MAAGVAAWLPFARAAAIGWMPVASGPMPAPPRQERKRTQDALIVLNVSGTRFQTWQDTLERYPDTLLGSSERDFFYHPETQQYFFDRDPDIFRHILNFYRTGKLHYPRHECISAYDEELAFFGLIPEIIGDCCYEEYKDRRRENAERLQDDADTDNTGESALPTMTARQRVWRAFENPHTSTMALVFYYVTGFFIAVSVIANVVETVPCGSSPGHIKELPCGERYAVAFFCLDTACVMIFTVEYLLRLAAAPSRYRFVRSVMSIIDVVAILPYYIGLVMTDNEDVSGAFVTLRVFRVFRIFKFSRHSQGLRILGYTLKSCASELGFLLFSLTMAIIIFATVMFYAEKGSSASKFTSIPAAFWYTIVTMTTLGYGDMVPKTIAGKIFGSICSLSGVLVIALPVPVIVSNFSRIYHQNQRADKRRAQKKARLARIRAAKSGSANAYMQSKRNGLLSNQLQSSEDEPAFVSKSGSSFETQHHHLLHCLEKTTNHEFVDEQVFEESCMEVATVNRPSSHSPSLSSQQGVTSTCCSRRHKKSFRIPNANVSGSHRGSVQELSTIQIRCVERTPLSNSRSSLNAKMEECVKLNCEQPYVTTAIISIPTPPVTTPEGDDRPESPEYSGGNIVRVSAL
The experiment in a line: Inhibition of rat potassium channel Kv4.2 by patch-clamp method.

For data set [5], the target named is T2, Potassium voltage-gated channel subfamily B member 1 (Rattus norvegicus, UniProt P15387).
T2 sequence (P15387 whole entry): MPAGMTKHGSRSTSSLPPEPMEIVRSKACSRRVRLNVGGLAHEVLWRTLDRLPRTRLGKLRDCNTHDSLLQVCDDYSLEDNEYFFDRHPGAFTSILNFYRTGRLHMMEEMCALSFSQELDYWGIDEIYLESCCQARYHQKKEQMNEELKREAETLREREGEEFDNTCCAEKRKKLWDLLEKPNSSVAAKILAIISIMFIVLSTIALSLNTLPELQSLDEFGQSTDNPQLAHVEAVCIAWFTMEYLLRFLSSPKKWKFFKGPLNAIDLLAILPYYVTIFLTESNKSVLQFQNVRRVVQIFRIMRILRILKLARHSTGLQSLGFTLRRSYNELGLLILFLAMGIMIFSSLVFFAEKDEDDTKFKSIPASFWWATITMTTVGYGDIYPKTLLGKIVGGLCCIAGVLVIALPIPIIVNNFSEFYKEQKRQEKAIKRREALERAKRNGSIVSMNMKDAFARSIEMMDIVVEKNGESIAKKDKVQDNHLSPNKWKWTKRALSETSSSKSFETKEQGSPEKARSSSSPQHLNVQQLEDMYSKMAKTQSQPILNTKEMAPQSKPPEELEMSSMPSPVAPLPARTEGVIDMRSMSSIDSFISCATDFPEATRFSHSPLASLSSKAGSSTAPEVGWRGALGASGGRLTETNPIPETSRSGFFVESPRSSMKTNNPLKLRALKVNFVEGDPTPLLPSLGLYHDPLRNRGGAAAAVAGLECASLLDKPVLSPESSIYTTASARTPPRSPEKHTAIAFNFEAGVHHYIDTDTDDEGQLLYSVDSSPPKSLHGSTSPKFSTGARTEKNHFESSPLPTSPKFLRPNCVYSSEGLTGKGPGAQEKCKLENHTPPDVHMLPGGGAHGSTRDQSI
The experiment in a line: Inhibition of rat potassium channel Kv2.1 by patch-clamp method.

The species named for data set [6] is Canis familiaris. Nature of the data set: Effect on Mongrel dog sterile pericarditis atrial fibrillation model assessed as conversion of atrial fibrillation to normal sinus rhythm. It counts as functional, organism-based. The conditions noted are these: Canis lupus familiaris; Cardiac atrium.
For data set [7], the species on record is Canis familiaris. Nature of the data set: Effect on Mongrel dog sterile pericarditis atrial fibrillation model assessed as dose for conversion of atrial fibrillation to normal sinus rhythm. Type of data set: functional, Canis lupus familiaris, Cardiac atrium.
Data set [8] can be described thus: Half life in Wistar rat at 12 mg/kg. iv. It counts as ADME, organism-based. The settings on record: in vivo. Also noted: dose 12 mg/kg, route intravenous.
A short description of data set [9]: Volume of distribution at steady state in Wistar rat at 12 mg/kg. iv. Type of data set: ADME, organism-based. Also noted: dose 12 mg/kg, route intravenous. The conditions noted are these: in vivo, read-out: Vdss.
A short description of data set [10]: Clearance in Wistar rat at 12 mg/kg. iv. It counts as ADME, organism-based. The arrangement: dose 12 mg/kg, route intravenous. The settings on record: in vivo.
The nature of data set [11]: Oral bioavailability in Wistar rat at 24 mg/kg. […]. It counts as ADME, organism-based. The settings on record: in vivo.
The species named for data set [12] is Canis familiaris. Nature of the data set: Reduction of blood pressure in Mongrel dog vagal atrial fibrillation model. Type of data set: functional, organism-based. The conditions noted are these: Canis lupus familiaris.
For data set [13], the species on record is Canis familiaris. The experiment in a line: Reduction of heart rate in Mongrel dog vagal atrial fibrillation model. The settings on record: Canis lupus familiaris. Type of data set: functional, organism-based.
For data set [14], the target named is Sodium channel protein type 5 subunit alpha (Homo sapiens, UniProt Q14524).
Chain of Sodium channel protein type 5 subunit alpha (Q14524 whole entry): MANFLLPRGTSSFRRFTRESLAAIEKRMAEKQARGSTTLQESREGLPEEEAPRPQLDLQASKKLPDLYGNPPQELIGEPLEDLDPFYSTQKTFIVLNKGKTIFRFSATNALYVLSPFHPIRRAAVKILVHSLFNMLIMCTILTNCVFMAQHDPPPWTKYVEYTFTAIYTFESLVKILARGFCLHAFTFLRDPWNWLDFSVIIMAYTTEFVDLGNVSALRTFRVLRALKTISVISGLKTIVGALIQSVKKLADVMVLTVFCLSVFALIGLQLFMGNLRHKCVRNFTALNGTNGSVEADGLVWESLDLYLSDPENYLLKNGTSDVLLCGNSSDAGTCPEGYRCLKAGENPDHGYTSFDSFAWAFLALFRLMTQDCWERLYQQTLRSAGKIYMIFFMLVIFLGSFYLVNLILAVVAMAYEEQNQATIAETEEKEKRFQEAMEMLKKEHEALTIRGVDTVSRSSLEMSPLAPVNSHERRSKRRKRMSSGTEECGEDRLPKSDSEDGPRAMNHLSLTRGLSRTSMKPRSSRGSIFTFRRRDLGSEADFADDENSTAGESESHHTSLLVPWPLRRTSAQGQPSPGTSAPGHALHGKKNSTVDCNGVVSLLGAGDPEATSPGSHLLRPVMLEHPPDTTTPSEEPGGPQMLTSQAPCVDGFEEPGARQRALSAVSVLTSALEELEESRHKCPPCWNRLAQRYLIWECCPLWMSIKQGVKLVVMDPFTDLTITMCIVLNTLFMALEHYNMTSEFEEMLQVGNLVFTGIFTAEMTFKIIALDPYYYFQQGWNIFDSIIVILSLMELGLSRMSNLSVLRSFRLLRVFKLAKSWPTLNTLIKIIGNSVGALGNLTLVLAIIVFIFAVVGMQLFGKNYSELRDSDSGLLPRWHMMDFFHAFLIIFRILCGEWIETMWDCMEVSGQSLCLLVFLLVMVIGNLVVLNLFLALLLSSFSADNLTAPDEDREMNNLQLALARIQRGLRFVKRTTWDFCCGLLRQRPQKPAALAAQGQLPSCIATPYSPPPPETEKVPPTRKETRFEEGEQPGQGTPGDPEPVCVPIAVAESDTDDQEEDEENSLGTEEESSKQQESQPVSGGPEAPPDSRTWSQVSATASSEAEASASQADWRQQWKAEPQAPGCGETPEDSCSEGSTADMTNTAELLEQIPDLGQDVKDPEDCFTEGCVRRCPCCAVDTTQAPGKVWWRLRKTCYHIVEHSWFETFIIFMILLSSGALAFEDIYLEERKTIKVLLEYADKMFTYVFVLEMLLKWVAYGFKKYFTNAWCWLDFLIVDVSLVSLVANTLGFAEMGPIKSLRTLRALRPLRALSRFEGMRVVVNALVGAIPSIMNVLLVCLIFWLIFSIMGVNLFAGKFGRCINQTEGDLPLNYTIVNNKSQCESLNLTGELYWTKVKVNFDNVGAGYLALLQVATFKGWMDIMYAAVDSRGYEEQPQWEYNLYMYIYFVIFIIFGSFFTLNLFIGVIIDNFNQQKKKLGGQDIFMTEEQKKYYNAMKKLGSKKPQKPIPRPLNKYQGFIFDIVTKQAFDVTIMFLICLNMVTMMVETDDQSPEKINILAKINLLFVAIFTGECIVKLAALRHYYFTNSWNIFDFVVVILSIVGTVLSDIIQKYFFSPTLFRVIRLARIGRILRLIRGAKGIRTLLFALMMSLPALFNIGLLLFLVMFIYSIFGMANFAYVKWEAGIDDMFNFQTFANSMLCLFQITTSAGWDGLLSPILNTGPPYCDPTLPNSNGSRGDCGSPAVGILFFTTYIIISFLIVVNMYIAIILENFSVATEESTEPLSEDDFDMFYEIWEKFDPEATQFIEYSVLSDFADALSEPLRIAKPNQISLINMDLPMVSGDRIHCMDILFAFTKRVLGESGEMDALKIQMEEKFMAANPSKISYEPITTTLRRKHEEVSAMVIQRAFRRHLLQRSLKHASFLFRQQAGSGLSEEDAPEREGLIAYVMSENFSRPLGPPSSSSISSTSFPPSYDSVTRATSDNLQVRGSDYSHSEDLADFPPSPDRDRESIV
Description: Inhibition of human heart sodium channel Nav1.5 by patch-clamp method
The nature of the next data set: in vivo. The settings on record: CD1, mouse, iv.
Data set [15] can be described thus: (§1) Half life in Wistar rat at 17 mg/kg. iv. Type of data set: ADME, organism-based. The arrangement: dose 17 mg/kg, route intravenous. The settings on record: Wistar, in vivo.
Data set [16] in a line: (§2) Volume of distribution at steady state in Wistar rat at 17 mg/kg. iv. It counts as ADME, organism-based. Also noted: dose 17 mg/kg, route intravenous. The settings on record: Wistar, in vivo, read-out: Vdss.
A short description of data set [17]: Clearance in Wistar rat at 17 mg/kg. iv. Type of data set: ADME, organism-based. The arrangement: dose 17 mg/kg, route intravenous. The conditions noted are these: in vivo.
The nature of data set [18]: (§3) Oral bioavailability in Wistar rat at 34 mg/kg. […]. Type of data set: ADME, organism-based. The conditions noted are these: Wistar, in vivo, oral.
The species named for data set [19] is Canis familiaris. The experiment in a line: Effect on Mongrel dog vagal atrial fibrillation model assessed as conversion of atrial fibrillation to normal sinus rhythm. Type of data set: functional, organism-based. The conditions noted are these: Canis lupus familiaris; Cardiac atrium.
The species named for data set [20] is Canis familiaris. Nature of the data set: Effect on Mongrel dog vagal atrial fibrillation model assessed as dose for conversion of atrial fibrillation to normal sinus rhythm. Type of data set: functional, Canis lupus familiaris, Cardiac atrium.
The test system of data set [21] is Rattus norvegicus. Described as §3. The settings on record: in vivo. It counts as ADME, organism-based.
Data set [22] concerns Rattus norvegicus. The description is as §1. Type of data set: ADME, organism-based. The arrangement: dose 17 mg/kg, route intravenous. The conditions noted are these: in vivo.
For data set [23], the system named is Rattus norvegicus. Described as §2. It counts as ADME, organism-based. Also noted: dose 17 mg/kg, route intravenous. The conditions noted are these: in vivo.
Data set [24] has as its system Rattus norvegicus. The experiment in a line: Hemodynamic effect in intravenously dosed Sprague-Dawley rat with ischemia-induced arrhythmia assessed as dose producing 10% reduction in systemic blood pressure. Type of data set: functional.

Chain of Potassium voltage-gated channel subfamily A member 5 (P22460 whole entry): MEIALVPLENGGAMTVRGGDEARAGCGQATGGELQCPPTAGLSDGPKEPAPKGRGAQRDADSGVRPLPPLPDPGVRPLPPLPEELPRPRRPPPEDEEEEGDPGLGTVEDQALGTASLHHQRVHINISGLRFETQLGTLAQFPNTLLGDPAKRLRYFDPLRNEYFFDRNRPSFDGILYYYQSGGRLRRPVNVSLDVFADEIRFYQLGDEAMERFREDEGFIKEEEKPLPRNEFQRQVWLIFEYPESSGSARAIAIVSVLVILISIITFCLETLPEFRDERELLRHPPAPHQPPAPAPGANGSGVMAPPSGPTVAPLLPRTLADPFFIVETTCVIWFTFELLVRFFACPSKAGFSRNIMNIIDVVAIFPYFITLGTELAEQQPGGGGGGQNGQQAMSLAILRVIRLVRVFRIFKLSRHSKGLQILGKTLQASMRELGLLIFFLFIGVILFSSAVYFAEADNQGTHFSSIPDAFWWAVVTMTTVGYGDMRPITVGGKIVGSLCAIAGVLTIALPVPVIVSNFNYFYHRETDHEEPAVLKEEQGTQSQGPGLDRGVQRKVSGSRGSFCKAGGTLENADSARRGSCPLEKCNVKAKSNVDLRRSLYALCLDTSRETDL
Description for in vivo: Toxicity in intravenously dosed CD1 mouse

With `c1ccc2c(CCO[C@@H]3CCCC[C@H]3N3CCOCC3)cccc2c1`, the Activity stood at 93 µmol/kg with Rattus norvegicus [1] and 8 µmol/kg in the data set listed under Canis familiaris [7]. For the same molecule, the ED50 (as a rule, the dose at which the effect has come halfway, by size or by number of responders) in the data set with Rattus norvegicus [2] was 0.8 µmol/kg/min. For the same molecule, the half-inhibitory concentration (IC50) – broadly, the concentration at which inhibition is half-maximal – in [3] came out at 1.3 µM; in data set [4], 17 µM; in data set [5], 3.2 µM; in [14], 4 µM. In addition, the outcome in the data set listed under Canis familiaris [6] was Active. Moreover, the half-life (usually the time needed for the level to fall by half in the phase considered) in data set [8] is 6.5 h. For the same molecule, in [9], the Vd is 29 L/kg. Further, in [10], the clearance (usually the volume of plasma or blood freed of the substance per unit of time) came to 50.1 mL/min/kg. Also, in data set [11], the bioavailability (as a rule, the share of a dose that reaches the circulation, judged against a reference dose that is usually intravenous) came out at 4%. Further, the outcome in the data set filed under Canis familiaris [12] and in the data set filed under Canis familiaris [13] was inactive. In addition, the LD50 (usually the dose expected to kill half of the subjects tested) in the data set “in vivo” came out at 42 µmol/kg.

Regarding `O=C1CCN([C@@H]2CCCC[C@H]2OCCc2cccc3ccccc23)C1` (stereo in doubt; 26) [listing 1 of 2 here], the result in the data set listed under Canis familiaris [12] and in the data set listed under Canis familiaris [13] was inactive.

Take `O=C1CCN([C@H]2CCCC[C@@H]2OCCc2cccc3ccccc23)C1`: the Activity with Rattus norvegicus [1] was found to be 150 µmol/kg. This molecule also registered an ED50 with Rattus norvegicus [2] of 1.9 µmol/kg/min. In addition, the IC50 in [3] was 7.7 µM; in data set [4] it was 9 µM; in [5], 8 µM; in data set [14] it was 13 µM. The molecule further gave a half-life in data set [15] of 1 h. In addition, the Vd in data set [16] was determined as 2.6 L/kg. In data set [17], this molecule displayed a clearance of 30.2 mL/min/kg. This molecule also showed a bioavailability in data set [18] of 32%.

On to `Clc1ccc(CCO[C@@H]2CCCC[C@H]2N2CCOCC2)cc1Cl`, for which the values for the Activity in the data set on Rattus norvegicus [1], in the data set filed under Canis familiaris [20] and in the data set listed under Canis familiaris [7] were 118 µmol/kg, 17 µmol/kg and 10 µmol/kg, respectively. This molecule displayed an ED50 in the data set on Rattus norvegicus [2] of 1.5 µmol/kg/min. Moreover, the IC50 is 3.6 µM in data set [3], 11 µM in data set [4], 2.4 µM in [5] and 15 µM in [14]. Further, the outcome in the data set filed under Canis familiaris [19] and in the data set listed under Canis familiaris [6] was Active. In addition, the half-life in data set [8] is 4.5 h. The Vd in [9] stood at 19 L/kg. This molecule gave a clearance in data set [10] of 48.5 mL/min/kg. Further, the bioavailability in data set [11] is 7%. In addition, the outcome in the data set listed under Canis familiaris [12] and in the data set filed under Canis familiaris [13] was inactive. The LD50 in “in vivo” turned out to be 228 µmol/kg.

With `CCN(CC)CC(=O)Nc1c(C)cccc1C` [LIDOCAINE], the Activity with Rattus norvegicus [1] came to 190 µmol/kg. For the same molecule, the ED50 in the data set on Rattus norvegicus [2] was 4.5 µmol/kg/min. Further, the IC50 amounted to 2190 µM in data set [3] and 1210 µM in [4].

As for `O=C1CCN([C@@H]2CCCC[C@H]2OCCc2cccc3ccccc23)C1` (stereo in doubt; 26) [listing 2 of 2 here], the Activity with Rattus norvegicus [1] worked out at 225 µmol/kg. The molecule also returned an ED50 in the data set with Rattus norvegicus [2] of 0.4 µmol/kg/min. For the same molecule, the IC50 in [3] is 4.3 µM; in data set [4], 8.9 µM; in data set [5], 2.8 µM; in data set [14] it was 25 µM. The half-life in [15] is 6.3 h. The Vd in data set [16] came to 4.5 L/kg. For the same molecule, in data set [17], the clearance was 38.7 mL/min/kg. The molecule also had a F in the data set with Rattus norvegicus [21] of 58%. In the data set “in vivo”, this molecule gave an LD50 of 227 µmol/kg.

Turning to `O=C1CCN([C@@H]2CCCC[C@H]2OCCc2cccc3ccccc23)C1` (stereo in doubt; 40), in the data set on Rattus norvegicus [1], the Activity worked out at 193 µmol/kg. In addition, in the data set with Rattus norvegicus [2], the ED50 came out at 1.2 µmol/kg/min. Moreover, the IC50 came to 5.9 µM in data set [3], 11 µM in data set [4], 6 µM in [5] and 11 µM in [14]. This molecule also returned a t1/2 with Rattus norvegicus [22] of 3.8 h. Besides, in the data set on Rattus norvegicus [23], the Vdss – broadly, the apparent volume that relates the amount in the body to the concentration in plasma or blood – stood at 8.3 L/kg. The molecule also returned a F with Rattus norvegicus [21] of 6%.

Turning to `O=C(NCC1CCCCN1)c1cc(OCC(F)(F)F)ccc1OCC(F)(F)F` (stereo unspecified) [FLECAINIDE], the Activity in the data set on Rattus norvegicus [1] came out at 113 µmol/kg. Besides, the IC50 in data set [3] turned out to be 51 µM; in [4] it was 10.1 µM. This molecule also yielded an LD50 in “in vivo” of 20 µmol/kg.

With `CCCCc1oc2ccccc2c1C(=O)c1cc(I)c(OCCN(CC)CC)c(I)c1` [AMIODARONE], the Activity in the data set with Rattus norvegicus [24] was 4 µmol/kg/min.

Regarding `COc1ccc(CCO[C@@H]2CCCC[C@H]2N2CCOCC2)cc1OC`, in the data set with Rattus norvegicus [1], the Activity came to 113 µmol/kg. The ED50 in the data set with Rattus norvegicus [2] amounted to 1.5 µmol/kg/min. The molecule also displayed a 50% lethal dose (LD50) in the data set “in vivo” of 97 µmol/kg.
